Data published in PubChem BioAssay (NCI).
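Exposure lasted 48 hours, with cells grown in 96-well plates and compounds tested at five concentrations. GI50 is the concentration that inhibits growth by half. TGI is the concentration that stops growth completely.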 Where a SMILES comes first, the peptide text is derived from it. [ ]: non-standard residue; d: D form. The star is where a group is joined. Ac5c = NC1(C(=O)O)CCCC1; Boc = CC(C)(C)OC(=O)*; tBu = CC(C)(C)*

What was measured:
Test in all cases: growth of human tumour cells (NCI), 48 h
A498 renal = tested on: A498 renal
ACHN renal = tested on: ACHN renal
CCRF-CEM leukemia = tested on: CCRF-CEM leukemia
DU-145 prostate = tested on: DU-145 prostate
HL-60(TB) leukemia = tested on: HL-60(TB) leukemia
HOP-92 NSCLC = tested on: HOP-92 NSCLC
HS 578T breast = tested on: HS 578T breast
K-562 leukemia = tested on: K-562 leukemia
MOLT-4 leukemia = tested on: MOLT-4 leukemia
NCI-H226 lung = tested on: NCI-H226 lung
NCI-H522 lung = tested on: NCI-H522 lung
NCI/ADR-RES ovarian = tested on: NCI/ADR-RES ovarian
OVCAR-3 ovarian = tested on: OVCAR-3 ovarian
OVCAR-5 ovarian = tested on: OVCAR-5 ovarian
RPMI-8226 leukemia = tested on: RPMI-8226 leukemia
SK-MEL-2 melanoma = tested on: SK-MEL-2 melanoma
SK-MEL-5 melanoma = tested on: SK-MEL-5 melanoma
SK-OV-3 ovarian = tested on: SK-OV-3 ovarian
SN12C renal = tested on: SN12C renal
SNB-75 CNS = tested on: SNB-75 CNS
SR leukemia = tested on: SR leukemia
T-47D breast = tested on: T-47D breast
UACC-62 melanoma = tested on: UACC-62 melanoma
UO-31 renal = tested on: UO-31 renal
786-0 renal = tested on: 786-0 renal
A549 NSCLC = tested on: A549 NSCLC
BT-549 breast = tested on: BT-549 breast
CAKI-1 renal = tested on: CAKI-1 renal
HCC-2998 colon = tested on: HCC-2998 colon
HCT-116 colon = tested on: HCT-116 colon
HOP-62 NSCLC = tested on: HOP-62 NSCLC
HT29 colon = tested on: HT29 colon
LOX IMVI melanoma = tested on: LOX IMVI melanoma
MCF7 breast = tested on: MCF7 breast
NCI-H23 lung = tested on: NCI-H23 lung
NCI-H460 lung = tested on: NCI-H460 lung
OVCAR-8 ovarian = tested on: OVCAR-8 ovarian
RXF 393 renal = tested on: RXF 393 renal
SF-539 CNS = tested on: SF-539 CNS
SK-MEL-28 melanoma = tested on: SK-MEL-28 melanoma
SNB-19 CNS = tested on: SNB-19 CNS
TK-10 renal = tested on: TK-10 renal
COLO 205 colon = tested on: COLO 205 colon
EKVX NSCLC = tested on: EKVX NSCLC
HCT-15 colon = tested on: HCT-15 colon
IGROV1 ovarian = tested on: IGROV1 ovarian
KM12 colon = tested on: KM12 colon
M14 melanoma = tested on: M14 melanoma
MALME-3M melanoma = tested on: MALME-3M melanoma
MDA-MB-435 = tested on: MDA-MB-435
OVCAR-4 ovarian = tested on: OVCAR-4 ovarian
PC-3 prostate = tested on: PC-3 prostate
SF-268 CNS = tested on: SF-268 CNS
SF-295 CNS = tested on: SF-295 CNS
SW-620 colon = tested on: SW-620 colon
U251 CNS = tested on: U251 CNS
UACC-257 melanoma = tested on: UACC-257 melanoma

SMILES: CCCN1CCN(c2ccc3nc(-c4ccc5nc(-c6ccc(OCC)cc6)[nH]c5c4)[nH]c3c2)CC1
- GI50 (A498 renal): 1.3 µM
- TGI (A498 renal): 3.01 µM
- GI50 (ACHN renal): 1.15 µM
- TGI (ACHN renal): 2.4 µM
- GI50 (CCRF-CEM leukemia): 0.629 µM
- TGI (CCRF-CEM leukemia): 3.58 µM
- GI50 (DU-145 prostate): 1.33 µM
- TGI (DU-145 prostate): 2.78 µM
- GI50 (HL-60(TB) leukemia): 1.08 µM
- TGI (HL-60(TB) leukemia): 3.55 µM
- GI50 (HOP-92 NSCLC): 5.05 µM
- TGI (HOP-92 NSCLC): 28.4 µM
- GI50 (HS 578T breast): 3.59 µM
- TGI (HS 578T breast): 50.1 µM
- GI50 (K-562 leukemia): 0.418 µM
- TGI (K-562 leukemia): 1.82 µM
- GI50 (MOLT-4 leukemia): 1.06 µM
- TGI (MOLT-4 leukemia): 3.42 µM
- GI50 (NCI-H226 lung): 10.1 µM
- TGI (NCI-H226 lung): 32.9 µM
- GI50 (NCI-H522 lung): 1.16 µM
- TGI (NCI-H522 lung): 3.46 µM
- GI50 (NCI/ADR-RES ovarian): 2.84 µM
- TGI (NCI/ADR-RES ovarian): > 100 µM
- GI50 (OVCAR-3 ovarian): 1.99 µM
- TGI (OVCAR-3 ovarian): 3.59 µM
- GI50 (OVCAR-5 ovarian): 1.88 µM
- TGI (OVCAR-5 ovarian): 3.36 µM
- GI50 (RPMI-8226 leukemia): 0.382 µM
- TGI (RPMI-8226 leukemia): 2.85 µM
- GI50 (SK-MEL-2 melanoma): 2.34 µM
- TGI (SK-MEL-2 melanoma): 5.86 µM
- GI50 (SK-MEL-5 melanoma): 1.04 µM
- TGI (SK-MEL-5 melanoma): 2.24 µM
- GI50 (SK-OV-3 ovarian): 1.33 µM
- TGI (SK-OV-3 ovarian): 3.37 µM
- GI50 (SN12C renal): > 100 µM
- TGI (SN12C renal): > 100 µM
- GI50 (SNB-75 CNS): 0.567 µM
- TGI (SNB-75 CNS): 29.6 µM
- GI50 (SR leukemia): 0.404 µM
- TGI (SR leukemia): 2.58 µM
- GI50 (T-47D breast): 1.41 µM
- TGI (T-47D breast): 6.36 µM
- GI50 (UACC-62 melanoma): 1.07 µM
- TGI (UACC-62 melanoma): 26.7 µM
- GI50 (UO-31 renal): 14.3 µM
- TGI (UO-31 renal): 43.9 µM

SMILES: O=c1[nH]c(=O)n(C2C[C@@H](O)[C@@H](CO)O2)cc1F (stereo partly specified)
- TGI (786-0 renal): > 100 µM
- TGI (A498 renal): 7.48 µM
- TGI (A549 NSCLC): > 100 µM
- TGI (ACHN renal): > 100 µM
- TGI (BT-549 breast): > 100 µM
- TGI (CAKI-1 renal): > 100 µM
- GI50 (CCRF-CEM leukemia): 0.0198 µM
- TGI (CCRF-CEM leukemia): > 100 µM
- TGI (DU-145 prostate): > 100 µM
- TGI (HCC-2998 colon): 4.45 µM
- GI50 (HCT-116 colon): 0.0289 µM
- TGI (HCT-116 colon): > 100 µM
- GI50 (HL-60(TB) leukemia): 0.482 µM
- TGI (HL-60(TB) leukemia): > 100 µM
- TGI (HOP-62 NSCLC): 0.956 µM
- TGI (HT29 colon): > 100 µM
- GI50 (K-562 leukemia): 0.156 µM
- TGI (K-562 leukemia): > 100 µM
- TGI (LOX IMVI melanoma): > 100 µM
- GI50 (MCF7 breast): < 0.01 µM
- TGI (MCF7 breast): > 100 µM
- GI50 (MOLT-4 leukemia): 0.0375 µM
- TGI (NCI-H23 lung): > 100 µM
- TGI (NCI-H460 lung): 9.8 µM
- GI50 (OVCAR-5 ovarian): 8.4 µM
- TGI (OVCAR-5 ovarian): > 100 µM
- TGI (OVCAR-8 ovarian): > 100 µM
- TGI (RXF 393 renal): 13.3 µM
- TGI (SF-539 CNS): > 60.8 µM
- GI50 (SK-MEL-28 melanoma): 0.433 µM
- TGI (SK-MEL-28 melanoma): > 100 µM
- TGI (SK-MEL-5 melanoma): 0.385 µM
- TGI (SNB-19 CNS): > 100 µM
- TGI (SNB-75 CNS): > 21.4 µM
- GI50 (SR leukemia): 0.184 µM
- TGI (SR leukemia): > 38.1 µM
- TGI (TK-10 renal): > 100 µM
- TGI (UACC-62 melanoma): > 100 µM
- TGI (UO-31 renal): 30.3 µM

SMILES: N#Cc1ccccc1C#C/C=C\C#Cc1ccccn1
- TGI (786-0 renal): 41.9 µM
- TGI (A549 NSCLC): 56.5 µM
- TGI (ACHN renal): > 100 µM
- TGI (CAKI-1 renal): 83.1 µM
- TGI (CCRF-CEM leukemia): > 100 µM
- TGI (COLO 205 colon): 73.5 µM
- TGI (DU-145 prostate): 83.5 µM
- TGI (EKVX NSCLC): 57.7 µM
- TGI (HCC-2998 colon): 27.6 µM
- TGI (HCT-116 colon): 24.3 µM
- TGI (HCT-15 colon): 70 µM
- TGI (HL-60(TB) leukemia): 63.6 µM
- TGI (HOP-62 NSCLC): 41.4 µM
- TGI (HOP-92 NSCLC): > 100 µM
- TGI (HS 578T breast): 38.3 µM
- TGI (HT29 colon): 41.6 µM
- TGI (IGROV1 ovarian): 36.7 µM
- TGI (K-562 leukemia): > 100 µM
- TGI (KM12 colon): 29.6 µM
- TGI (M14 melanoma): 28.8 µM
- TGI (MALME-3M melanoma): 39.6 µM
- TGI (MCF7 breast): 33.5 µM
- TGI (MDA-MB-435): 20.4 µM
- TGI (NCI-H23 lung): 25.5 µM
- TGI (NCI-H460 lung): 44.3 µM
- TGI (NCI-H522 lung): 36.7 µM
- TGI (NCI/ADR-RES ovarian): 34.3 µM
- TGI (OVCAR-3 ovarian): 19.2 µM
- TGI (OVCAR-4 ovarian): > 100 µM
- TGI (OVCAR-5 ovarian): 58.6 µM
- TGI (OVCAR-8 ovarian): 30.3 µM
- TGI (PC-3 prostate): 40.6 µM
- TGI (RXF 393 renal): 33.1 µM
- TGI (SF-268 CNS): 48.4 µM
- TGI (SF-295 CNS): 52.7 µM
- TGI (SF-539 CNS): 45.1 µM
- TGI (SK-MEL-2 melanoma): 33.3 µM
- TGI (SK-MEL-28 melanoma): 36 µM
- TGI (SK-MEL-5 melanoma): 12.9 µM
- TGI (SK-OV-3 ovarian): 76.7 µM
- TGI (SN12C renal): 47.8 µM
- TGI (SNB-19 CNS): 69.3 µM
- TGI (SNB-75 CNS): 67.6 µM
- TGI (SR leukemia): 36.2 µM
- TGI (SW-620 colon): 31.9 µM
- TGI (T-47D breast): 62.5 µM
- TGI (TK-10 renal): 96.2 µM
- TGI (U251 CNS): 38.3 µM
- TGI (UACC-257 melanoma): 28.8 µM
- TGI (UACC-62 melanoma): 37 µM
- TGI (UO-31 renal): 32.3 µM

SMILES: C=CCNc1nc2c(N)ncnc2s1
- TGI (786-0 renal): > 10 µM
- TGI (A549 NSCLC): > 10 µM
- TGI (ACHN renal): > 10 µM
- TGI (CAKI-1 renal): > 10 µM
- TGI (CCRF-CEM leukemia): > 10 µM
- TGI (COLO 205 colon): > 10 µM
- TGI (HL-60(TB) leukemia): > 10 µM
- TGI (HOP-62 NSCLC): > 10 µM
- TGI (HOP-92 NSCLC): > 10 µM
- TGI (IGROV1 ovarian): > 10 µM
- TGI (K-562 leukemia): > 10 µM
- TGI (M14 melanoma): > 10 µM
- TGI (MALME-3M melanoma): > 10 µM
- TGI (MCF7 breast): > 10 µM
- TGI (MDA-MB-435): > 10 µM
- TGI (MOLT-4 leukemia): > 10 µM
- TGI (NCI-H23 lung): > 10 µM
- TGI (NCI-H460 lung): > 10 µM
- TGI (NCI/ADR-RES ovarian): > 10 µM
- TGI (OVCAR-4 ovarian): > 10 µM
- TGI (OVCAR-5 ovarian): > 10 µM
- TGI (RPMI-8226 leukemia): > 10 µM
- TGI (RXF 393 renal): > 10 µM
- TGI (SF-268 CNS): > 10 µM
- TGI (SK-MEL-2 melanoma): > 10 µM
- TGI (SK-MEL-28 melanoma): > 10 µM
- TGI (SK-MEL-5 melanoma): > 10 µM
- TGI (SK-OV-3 ovarian): > 10 µM
- TGI (SNB-75 CNS): > 10 µM
- TGI (SR leukemia): > 10 µM
- TGI (SW-620 colon): > 10 µM
- TGI (T-47D breast): > 10 µM
- TGI (U251 CNS): > 10 µM
- TGI (UACC-62 melanoma): > 10 µM

SMILES: CC(OC(C)(C)C)C1NC(=O)C(CCCCNC(=O)OC(C)(C)C)NC(=O)C(Cc2c[nH]c3ccccc23)NC(=O)C(Cc2ccccc2)NC(=O)C2(CCCC2)NC(=O)C(Cc2ccccc2)NC1=O (stereo unspecified) (cyclo([Ac5c]FWK(Boc)T(tBu)F); configuration not given here)
- TGI (HOP-92 NSCLC): 67.1 µM
- TGI (NCI-H226 lung): 47.6 µM
- TGI (NCI-H23 lung): > 100 µM
- TGI (UACC-257 melanoma): 46.6 µM
